In PMC12595484, “Optimizing multifunctional fluorescent ligands for intracellular labeling” (Proceedings of the National Academy of Sciences of the …, 2025):

Tested on: U2OS cells expressing HaloTag–H2B
Assay: Dye loading kinetics
Assay type: cell-based
Conditions: 200 nM
Method: U2OS cell culture, labeling, and fluorescence microscopy. U2OS cells (ATCC) were cultured in Dulbecco's modified Eagle medium (DMEM, phenol red-free; Life Technologies) supplemented with 10% (v/v) fetal bovine serum (FBS, Life Technologies), 1 mM GlutaMAX (Life Technologies) and maintained at 37 °C in a humidified 5% (v/v) CO2 environment. These cell lines undergo regular mycoplasma testing by the Janelia Cell Culture Facility. U2OS cells stably expressing an integrated HaloTag–histone H2B fusion protein (U2OS.H2B.HaloTag) were used for nuclear imaging and imaged 18–24 h post-plating. […]
Fixed cells were then washed
3× in 1× PBS and incubated with Hoechst 33342 (5µg/mL) for 15 min at 22 °C as a nuclear counterstain. Airyscan imaging was performed on a Zeiss LSM 980 with Airyscan 2 confocal microscope using a Plan APO 63×/1.4 oil DIC M27 objective. The same acquisition settings were used for all constructs labeled with 13HTL–16HTL. These single plane images were bulk processed in ZEN Blue (Zeiss) with automatic Airyscan settings.
Dye loading kinetics. Live U2OS.H2B.HaloTag stable cells were labeled over a time course of 0–4 h with 200 nM of biotin-JF549-HaloTag ligand (13HTL), biotin-JF608-HaloTag ligand (14HTL), biotin-JF646-HaloTag ligand (15HTL), or biotin-JF635-HaloTag ligand (16HTL) at 37 °C. Cells were […]
then washed 3× with dye-free media, fixed with 4% paraformaldehyde in 0.1 M phosphate buffer, pH 7.4 for 15 min at 37 °C. Confocal imaging was performed on a Leica SP8 with an HC PL APO CS2 20×/0.75 immersion objective using the tunable white light laser ( WLL) to excite dyes at their λabs in constant power mode. Fluorescence was quantified as the average integrated density of background corrected nuclear signals from confocal image stack projections analyzed in Fiji;14 n = 100 nuclear signals per compound. […]
(IB) consisting of KCl (0.18 M), ethylene glycol-bis(β-aminoethyl ether)-N,N,N′,N′-tetraacetic acid (EGTA; 1 mM), 3-(N-morpholino)propanesulfonic acid (MOPS; 5 mM); the pH was adjusted to pH = 7.35 using KOH(aq).15 StrepTactin Microbeads (IBA Lifesciences, 6-5510-050) were used as capture reagents as these beads had lowest amount of background observed in our hands. […]
The post-bead supernatant and wash volumes were pooled and spun at 15,000 g for 12 min. […] The affinity capture pulldown efficiency was monitored using in-gel fluorescence. The msGFP signal from HaloTag-TEV-4×GS-msGFP-mito after cell lysis and SDS-PAGE was analyzed, in-gel, using a Bio-Rad Chemidoc MP imager (Bio-Rad) through GFP fluorescence excitation and emission filters. Data were quantified by densitometry using Fiji.14 Capture efficiency was […]

Structure (SMILES) | intracellular labeling over 4 h | time to maximal intensity
O=C(CCCCC1SCC2NC(=O)NC21)NCCOCCOCCNC(=O)C1C[N+](=c2ccc3c(-c4cc(C(=O)NCCOCCOCCCCCCCl)ccc4C(=O)[O-])c4ccc(N5CCC5)cc4oc-3c2)C1 (stereo not shown) [13HTL, biotin–JF549–HaloTag ligand] | negligible intracellular labeling | –
CC1(C)C2=CC(=[N+]3CC(C(=O)NCCOCCOCCNC(=O)CCCC[C@@H]4SC[C@@H]5NC(=O)N[C@@H]54)C3)C=CC2=C(c2cc(C(=O)NCCOCCOCCCCCCCl)ccc2C(=O)[O-])c2ccc(N3CCC3)cc21 (stereo partly shown) [14HTL, biotin–JF608–HaloTag ligand] | – | 4 h
C[Si]1(C)C2=CC(=[N+]3CC(C(=O)NCCOCCOCCNC(=O)CCCC[C@@H]4SC[C@@H]5NC(=O)N[C@@H]54)C3)C=CC2=C(c2cc(C(=O)NCCOCCOCCCCCCCl)ccc2C(=O)[O-])c2ccc(N3CCC3)cc21 (stereo partly shown) [15HTL, biotin–JF646–HaloTag ligand] | – | 1 h
C[Si]1(C)C2=CC(=[N+]3CC(F)(C(=O)NCCOCCOCCNC(=O)CCCC[C@@H]4SC[C@@H]5NC(=O)N[C@@H]54)C3)C=CC2=C(c2cc(C(=O)NCCOCCOCCCCCCCl)ccc2C(=O)[O-])c2ccc(N3CC(F)C3)cc21 (stereo partly shown) [16HTL, biotin–JF635–HaloTag ligand] | – | 1 h
